Results as given in patent US8835427B2, “Fungicidal heterocyclic compounds” (priority 2010, dated 2014).
Marks after values point to notes of the source that are not given here.

Legend:
Format in all cases: in vivo
Plasmopara viticola = experiment: Test A: grape downy mildew, grape seedlings sprayed after inoculation, visual disease rating; details: 40 ppm test suspension (asterisk); grape seedlings sprayed 24 h after inoculation with Plasmopara viticola; rating 100 = 100% disease control, 0 = no control relative to the controls
Phytophthora infestans [1] = details: 40 ppm test suspension (asterisk); tomato seedlings sprayed the day before inoculation with Phytophthora infestans; rating 100 = 100% disease control, 0 = no control relative to the controls
Phytophthora infestans [2] = details: 40 ppm test suspension (asterisk); tomato seedlings sprayed 17 h after inoculation with Phytophthora infestans; rating 100 = 100% disease control, 0 = no control relative to the controls

## Cc1cc(C(F)(F)F)nn1CC(=O)N1CCC(c2nc(C3=NOC(c4c(F)cccc4F)C3)cs2)CN1 (stereo not drawn) [Compound 1, 1-[4-[4-[5-(2,6-difluorophenyl)-4,5-dihydro-3-isoxazolyl]-2-thiazolyl]tetrahydro-1(2H)-pyridazinyl]-2-[5-methyl-3-(trifluoromethyl)-1H-pyrazol-1-yl]ethanone]
Plasmopara viticola
  Test A rating (disease control, grape downy mildew): 99* %
Phytophthora infestans [1]
  Test B rating (disease control, tomato late blight): 100* %
Phytophthora infestans [2]
  Test C rating (disease control, tomato late blight): 99* %

## CC(=O)N1CC(c2nc(C3=NOC(c4c(F)cccc4F)C3)cs2)CCN1C(=O)Cn1nc(C(F)(F)F)cc1C (stereo not drawn) [Compound 2, 1-[2-Acetyl-4-[4-[5-(2,6-difluorophenyl)-4,5-dihydro-3-isoxazolyl]-2-thiazolyl]tetrahydro-1(2H)-pyridazinyl]-2-[5-methyl-3-(trifluoromethyl)-1H-pyrazol-1-yl]ethanone]
Plasmopara viticola
  Test A rating (disease control, grape downy mildew): 89* %
Phytophthora infestans [1]
  Test B rating (disease control, tomato late blight): 100* %
Phytophthora infestans [2]
  Test C rating (disease control, tomato late blight): 98* %

## Cc1cc(C(F)(F)F)nn1CC(=O)N1CCC(c2nc(C3=NOC(c4c(F)cccc4F)C3)cs2)CO1 (stereo not drawn) [Compound 3]
Plasmopara viticola
  Test A rating (disease control, grape downy mildew): 100* %
Phytophthora infestans [1]
  Test B rating (disease control, tomato late blight): 100* %
Phytophthora infestans [2]
  Test C rating (disease control, tomato late blight): 99* %

## Cc1cc(C(F)(F)F)nn1CC(=O)N1CC2CN(c3nc(C4=NOC(c5c(F)cccc5F)C4)cs3)CC2C1 (stereo not drawn) [Compound 4, 1-[5-[4-[5-(2,6-difluorophenyl)-4,5-dihydro-3-isoxazolyl]-2-thiazolyl]hexahydropyrrolol[3,4-c]pyrrol-2(1H)-yl]-2-[5-methyl-3-(trifluoromethyl)-1H-pyrazol-1-yl]ethanone]
Plasmopara viticola
  Test A rating (disease control, grape downy mildew): 99* %
Phytophthora infestans [1]
  Test B rating (disease control, tomato late blight): 100* %
Phytophthora infestans [2]
  Test C rating (disease control, tomato late blight): 99* %
